This note sets out measurements from PubChem BioAssay AID504703 (Southern Research Specialized Biocontainment Screening …, 2011).

The assay relates to M. tuberculosis H37Rv growth inhibition with meropenem. In words: H37Rv growth inhibition with and without meropenem, dose response, set 2 (AID 504703).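 Also: growth ran 7 days at 37 °C then overnight with Alamar Blue before reading.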
The mark [1] stands for this setting: M. tuberculosis H37Rv growth inhibition, measured here: IC50 without meropenem.
Where [2] appears, read: M. tuberculosis H37Rv growth inhibition, measured here: IC90 without meropenem.

Activity calls are given as the source filed them. No rule for the calls is given here.

Consider `N/C(=N\c1nc2ccccc2o1)NC(=O)c1ccc(F)cc1`, for which the IC50 (usually the concentration that inhibits the measured activity by half) is 9.64 µM (inactive). Further, the IC50 under setting [1] turned out to be 21.6 µM. Moreover, the 90% effect concentration (IC90) (as a rule, the concentration needed for an effect of 90%) under setting [2] was over 25 µM. The IC90 (measured here: IC90 with meropenem) was over 25 µM.

Under setting [1], `CCOc1ccc2nc(NC(=O)COc3ccc(F)cc3)sc2c1` registered an IC50 of over 25 µM. The 90% effect concentration (IC90) under setting [2] is over 25 µM.
